From patent US20250179103A1, “6-OXODECAHYDROPYRROLO[1,2-A][1,5]DIAZOCINE AND 6-OXODECAHYDRO-4H-PYRROLO[2,1-D][1,5]THIAZOCINE DERIVATIVES AS STAT3 AND STAT6 MODULATORS FOR THE TREATMENT OF CANCER AND INFLAMMATORY CONDITIONS” (Recludix Pharma, Inc., priority 2022, published 2025)

What was measured:
[1] = target: T1, Recombinant STAT6 protein (STAT6(W123-T658)) (Homo sapiens, UniProt P42226); assay: STAT6 Fluorescence Polarization (FP) Assay; format: binding; details: STAT6(W123-T658) 250 nM, probe 5-FAM-ApYKPFQDLI-NH2 2 nM, 45-minute incubation
T1 construct: Recombinant STAT6 protein (STAT6(W123-T658))
T1 sequence (P42226 123-658): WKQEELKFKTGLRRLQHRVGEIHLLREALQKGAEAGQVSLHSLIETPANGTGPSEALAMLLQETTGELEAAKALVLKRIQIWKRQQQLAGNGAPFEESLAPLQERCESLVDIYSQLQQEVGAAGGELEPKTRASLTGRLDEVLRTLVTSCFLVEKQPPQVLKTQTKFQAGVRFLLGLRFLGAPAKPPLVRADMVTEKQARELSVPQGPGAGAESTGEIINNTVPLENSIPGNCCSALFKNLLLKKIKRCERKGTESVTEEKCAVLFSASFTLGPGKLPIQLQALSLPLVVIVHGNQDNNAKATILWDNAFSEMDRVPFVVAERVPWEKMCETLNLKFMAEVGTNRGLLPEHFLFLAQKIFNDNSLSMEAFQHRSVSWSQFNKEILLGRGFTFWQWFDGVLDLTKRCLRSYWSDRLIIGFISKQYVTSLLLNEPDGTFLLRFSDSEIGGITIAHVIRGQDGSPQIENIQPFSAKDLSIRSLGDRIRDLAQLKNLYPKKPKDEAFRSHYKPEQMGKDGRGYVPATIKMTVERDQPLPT
Method in brief: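 Displacement of a fluorescent phosphotyrosine peptide (5-FAM-ApYKPFQDLI-NH2, 2 nM) from STAT6(W123-T658) (250 nM), 1% DMSO, pH 7.4 HEPES buffer. After 45 min at room temperature, polarization (mP) was plotted versus log compound concentration and fitted by nonlinear regression to give IC50.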

[2] = target: T2, Recombinant STAT3 protein (STAT3(G127-I722)) (Homo sapiens, UniProt P40763); assay: STAT3 Fluorescence Polarization (FP) Assay; format: binding; details: STAT3(G127-I722) 25 nM, probe 5-FAM-GpYLPQTV-NH2 2 nM, 45-minute incubation
T2 construct: Recombinant STAT3 protein (STAT3(G127-I722))
T2 sequence (P40763 127-722): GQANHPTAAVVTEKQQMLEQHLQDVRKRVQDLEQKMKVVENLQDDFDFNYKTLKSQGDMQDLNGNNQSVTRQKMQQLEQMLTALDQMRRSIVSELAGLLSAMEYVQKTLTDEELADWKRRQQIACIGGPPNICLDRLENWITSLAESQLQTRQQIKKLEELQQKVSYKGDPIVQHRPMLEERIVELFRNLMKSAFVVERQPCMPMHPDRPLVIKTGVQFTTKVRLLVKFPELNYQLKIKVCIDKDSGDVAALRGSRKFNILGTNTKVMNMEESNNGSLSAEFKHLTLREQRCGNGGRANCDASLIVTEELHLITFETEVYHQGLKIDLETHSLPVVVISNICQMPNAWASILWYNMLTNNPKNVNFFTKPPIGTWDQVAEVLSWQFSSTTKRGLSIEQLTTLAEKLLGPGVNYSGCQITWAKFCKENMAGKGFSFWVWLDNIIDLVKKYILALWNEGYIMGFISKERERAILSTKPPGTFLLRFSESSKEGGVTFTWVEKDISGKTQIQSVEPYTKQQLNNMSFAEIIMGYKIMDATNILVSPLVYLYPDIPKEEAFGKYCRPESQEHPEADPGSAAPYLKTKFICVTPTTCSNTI
Method in brief: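 STAT3(G127-I722), 25 nM, was mixed with 2 nM 5-FAM-GpYLPQTV-NH2 probe in HEPES pH 7.4 buffer with 1% DMSO and serially diluted compound. FP (mP) was read after 45 min at room temperature. IC50 came from nonlinear regression.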

| IC50 [1] | IC50 [2] | Structure (SMILES) |
| --- | --- | --- |
| ≤ 0.3 µM | > 10 µM | O=C(N[C@H]1CCN(CC(F)F)C[C@H]2CC[C@@H](C(=O)N3CC(c4cc[nH]c(=O)c4)CC34CC4)N2C1=O)c1ccc2ccc(C(F)(F)P(=O)(O)O)cc2c1 (stereo partly drawn) [Compound 234, ((7-(((5S,8S,10aR)-2-(2,2-difluoroethyl)-6-oxo-8-(6-(2-oxo-1,2-dihydropyridin-4-yl)-4-azaspiro[2.4]heptane-4-carbonyl)decahydropyrrolo[1,2-a][1,4]diazocin-5-yl)carbamoyl)naphthalen-2-yl)difluoromethyl)phosphonic acid] |
| 0.3 to 3 µM | 1 to 10 µM | O=C(N[C@H]1CN(S(=O)(=O)CCc2ccccc2)CC[C@H]2CC[C@@H](C(=O)Nc3ccc(-c4ccccc4)cc3)N2C1=O)c1cc2cc(C(F)(F)P(=O)(O)O)ccc2s1 [Compound 268, ((2-(((5S,8S,10aR)-8-([1,1′-biphenyl]-4-ylcarbamoyl)-6-oxo-3-(phenethylsulfonyl)decahydropyrrolo[1,2-a][1,5]diazocin-5-yl)carbamoyl)benzo[b]thiophen-5-yl)difluoromethyl)phosphonic acid] |
| 3 to 30 µM | > 10 µM | CC(=O)N1CC[C@H]2CC[C@@H](C(=O)N(C)c3ccccc3)N2C(=O)[C@@H](NC(=O)/C=C/c2cccc(C(F)(F)P(=O)(O)O)c2)C1 [Compound 51, ((3-((E)-3-(((5S,8S,10aR)-3-acetyl-8-(methyl(phenyl)carbamoyl)-6-oxodecahydropyrrolo[1,2-a][1,5]diazocin-5-yl)amino)-3-oxoprop-1-en-1-yl)phenyl)difluoromethyl)phosphonic acid] |
| 0.3 to 3 µM | 1 to 10 µM | COc1cccc(N(C)C(=O)[C@@H]2CC[C@@H]3CCN(C(C)=O)C[C@H](NC(=O)c4cc5cc(C(F)(F)P(=O)(O)O)ccc5[nH]4)C(=O)N32)c1 [Compound 165, ((2-(((5S,8S,10aR)-3-acetyl-8-((3-methoxyphenyl)(methyl)carbamoyl)-6-oxodecahydropyrrolo[1,2-a][1,5]diazocin-5-yl)carbamoyl)-1H-indol-5-yl)difluoromethyl)phosphonic acid] |
| 0.3 to 3 µM | 1 to 10 µM | CC(=O)N1CC[C@H]2CC[C@@H](C(=O)N3C[C@@H](C#N)[C@H](C4CCCCC4)C3)N2C(=O)[C@@H](NC(=O)c2cc3cc(C(F)(F)P(=O)(O)O)ccc3s2)C1 (relative stereo) [Compound 151, ((2-(((5S,8S,10aR)-3-acetyl-8-((rel-trans)-3-cyano-4-cyclohexylpyrrolidine-1-carbonyl)-6-oxodecahydropyrrolo[1,2-a][1,5]diazocin-5-yl)carbamoyl)benzo[b]thiophen-5-yl)difluoromethyl)phosphonic acid] |
| ≤ 0.3 µM | > 10 µM | Cc1ccc2onc(C(=O)N3CC[C@H]4CC[C@@H](C(=O)N5C[C@@H](c6ccn(C)c(=O)c6)CC56CC6)N4C(=O)[C@@H](NC(=O)c4ccc5ccc([C@H](F)P(=O)(O)O)cc5c4)C3)c2c1 [Compound 387, ((R)-fluoro(7-(((5S, 8S,10aR)-8-((R)-6-(1-methyl-2-oxo-1,2-dihydropyridin-4-yl)-4-azaspiro[2.4]heptane-4-carbonyl)-3-(5-methylbenzo[d]isoxazole-3-carbonyl)-6-oxodecahydro-pyrrolo[1,2-a][1,5]diazocin-5-yl)carbamoyl)naphthalen-2-yl)methyl) phosphonic acid] |
| 0.3 to 3 µM | 1 to 10 µM | CC(=O)N1CC[C@H]2CC[C@@H](C(=O)Nc3ccc(-c4ccccc4)cc3)N2C(=O)[C@@H](NC(=O)c2cc3cc(C(F)P(=O)(O)O)ccc3s2)C1 (stereo partly drawn) [Compound 17, ((2-(((5S,8S,10aR)-8-([1,1′-biphenyl]-4-ylcarbamoyl)-3-acetyl-6-oxodecahydropyrrolo[1,2-a][1,5]diazocin-5-yl)carbamoyl)benzo[b]thiophen-5-yl)fluoromethyl)phosphonic acid] |
| ≤ 0.3 µM | 1 to 10 µM | CN(C(=O)[C@@H]1CC[C@@H]2CCN(C(=O)CCc3ccccc3)C[C@H](NC(=O)c3cc4cc(C(F)(F)P(=O)(O)O)ccc4[nH]3)C(=O)N21)c1ccccc1 [Compound 253, (difluoro(2-(((5S,8S,10aR)-8-(methyl(phenyl)carbamoyl)-6-oxo-3-(3-phenylpropanoyl)decahydropyrrolo[1,2-a][1,5]diazocin-5-yl)carbamoyl)-1H-indol-5-yl)methyl)phosphonic acid] |
| 0.3 to 3 µM | 1 to 10 µM | CC(=O)N1CC[C@H]2CC[C@@H](C(=O)N3CCC[C@H]3Cc3ccccc3)N2C(=O)[C@@H](NC(=O)c2ccc3ccc(C(F)(F)P(=O)(O)O)cc3c2)C1 [Compound 200, ((7-(((5S,8S,10aR)-3-acetyl-8-((S)-2-benzylpyrrolidine-1-carbonyl)-6-oxodecahydropyrrolo[1,2-a][1,5]diazocin-5-yl)carbamoyl)naphthalen-2-yl)difluoromethyl)phosphonic acid] |
| 0.3 to 3 µM | 0.1 to 1 µM | CO[C@H]1CN(C(C)=O)C[C@@H]1NC(=O)[C@@H]1CC[C@@H]2CCN(C(C)=O)C[C@H](NC(=O)c3cc4cc(C(F)(F)P(=O)(O)O)ccc4s3)C(=O)N21 [Compound 184, ((2-(((5S,8S,10aR)-3-acetyl-8-(((3S,4S)-1-acetyl-4-methoxypyrrolidin-3-yl)carbamoyl)-6-oxodecahydropyrrolo[1,2-a][1,5]diazocin-5-yl)carbamoyl)benzo[b]thiophen-5-yl)difluoromethyl)phosphonic acid] |
| 0.3 to 3 µM | 1 to 10 µM | CCN1CC[C@H]2CC[C@@H](C(=O)N3C[C@@H](C#N)[C@H](c4ccccc4)C3)N2C(=O)[C@@H](NC(=O)c2ccc3ccc(C(F)(F)P(=O)(O)O)cc3c2)C1 (single isomer, unassigned) [Compound 243, ((7-(((5S,8S,10aR)-8-((3S,4R or 3R,4S)-3-cyano-4-phenylpyrrolidine-1-carbonyl)-3-ethyl-6-oxodecahydropyrrolo[1,2-a][1,5]diazocin-5-yl)carbamoyl)naphthalen-2-yl)difluoromethyl)phosphonic acid] |
| 0.3 to 3 µM | 1 to 10 µM | CC(=O)N1CC[C@H]2CC[C@@H](C(=O)N3CC(C(=O)N4CCN(C)CC4)C3)N2C(=O)[C@@H](NC(=O)c2cc3cc(C(F)(F)P(=O)(O)O)ccc3s2)C1 [Compound 195, ((2-(((5S,8S,10aR)-3-acetyl-8-(3-(4-methylpiperazine-1-carbonyl)azetidine-1-carbonyl)-6-oxodecahydropyrrolo[1,2-a][1,5]diazocin-5-yl)carbamoyl)benzo[b]thiophen-5-yl)difluoromethyl)phosphonic acid] |
| 0.3 to 3 µM | 1 to 10 µM | CC(=O)N1CC[C@H]2CC[C@@H](C(=O)N3CCC[C@H]3c3ccccc3)N2C(=O)[C@@H](NC(=O)c2cc3cc(C(F)(F)P(=O)(O)O)ccc3[nH]2)C1 [Compound 162, ((2-(((5S,8S,10aR)-3-acetyl-6-oxo-8-((S)-2-phenylpyrrolidine-1-carbonyl)decahydropyrrolo[1,2-a][1,5]diazocin-5-yl)carbamoyl)-1H-indol-5-yl)difluoromethyl)phosphonic acid] |
| 0.3 to 3 µM | > 10 µM | CC(=O)N1CC[C@H]2CC[C@@H](C(=O)N3CC(c4ccn(C)c(=O)c4)CC34CC4)N2C(=O)[C@@H](NC(=O)c2ccc3ccc(CP(=O)(O)O)cc3c2)C1 (stereo partly drawn) [Compound 356, ((7-(((5S,8S,10a R)-3-acetyl-8-(6-(1-methyl-2-oxo-1,2-dihydropyridin-4-yl)-4-azaspiro[2.4]heptane-4-carbonyl)-6-oxodeca-hydropyrrolo [1,2-a][1,5]diazocin-5-yl)carbamoyl)naphthalen-2-yl)methyl) phosphonic acid] |

| Structure (SMILES) | IC50 [1] | IC50 [2] |
| --- | --- | --- |
| CCC(=O)NCCCN(C)C(=O)[C@@H]1CC[C@@H]2CCN(C(C)=O)C[C@H](NC(=O)c3cc4cc(C(=O)P(=O)(O)O)ccc4[nH]3)C(=O)N21 [Compound 27, (2-(((5S,8S,10aR)-3-acetyl-8-(methyl(3-propionamidopropyl)carbamoyl)-6-oxodecahydropyrrolo[1,2-a][1,5]diazocin-5-yl)carbamoyl)-1H-indole-5-carbonyl)phosphonic acid] | 3 to 30 µM | 1 to 10 µM |
| O=C(N[C@H]1CN(C(=O)NCC23CCN(CC2)CC3)CC[C@H]2CC[C@@H](C(=O)N3CC(c4cccnc4)C3)N2C1=O)c1cc2cc(C(F)(F)P(=O)(O)O)ccc2s1 [Compound 401, (difluoro(2-(((5S,8S, 10aR)-6-oxo-8-(3-(pyridin-3-yl)azetidine-1-carbonyl)-3-((quinuclidin-4-ylmethyl)carbamoyl)decahydropyrrolo [1,2-a][1,5]diazocin-5-yl)carbamoyl)benzo[b]thiophen-5-yl)methyl) phosphonic acid] | 3 to 30 µM | ≤ 0.1 µM |
